Entries after “also recorded” stand apart in the source; their conditions may differ.
Assays:
[1] = Pharmacokinetic profile after P.O. dosing (plasma concentration); type: in vivo; conditions: mouse, 30 mg/kg oral gavage, male 2-month-old C57Bl/6 mice, for 8 hours, read-out: plasma concentration of Compound 1 maintained for 8 hours
Procedure: Compound levels were measured by MS/MS by Quintara (Hayward, Calif.).
Plasma from male 2-month-old C57Bl/6 mice was measured for concentrations of Compound 1 at time points of 20 minutes, 2 hours, 8 hours, and 12 hours after oral gavage at 2 doses: 30 mg/kg and 150 mg/kg.

[2] = test system: doublecortin-positive cells in the hippocampus; assay: Histology: doublecortin (DCX) positive cells in hippocampus of aged mice; type: in vivo, C57Bl/6 mice; conditions: 18-month-old mice; four-week subcutaneous dosing by pump, versus IgG control
From the text: (§1) Mice were taken down on the day following the end of behavior testing. Anesthesia was induced by 2,2,2-tribromoethanol and mice were subsequently perfused with 0.9% saline trans-cardially. The brains were dissected and cut sagitally in two even halves. One half was snap frozen for later use in dry ice, and the other was fixed in 4% paraformaldehyde in PBS for use in immunohistochemistry. After two days of fixation, the hemibrains were transferred to a 30% sucrose in PBS solution and changed after two days. Hemibrains were sectioned at 30 um on a microtome at −22° C. Brain sections were stored in cryoprotectant media at −20° C. until needed for staining. Blocking was done on free floating sections in the appropriate serum at 10% serum in PBST 0.5%. Primary antibodies were incubated overnight at 4 C. For light microscopy, the following antibodies were used in the given concentrations: DCX, 1:200, Santa Cruz BioTech, CD68, 1:1000. AbD Serotec. Secondary biotinylated antibodies were applied the next day at a concentration of 1:300. Staining visualization was achieved by reaction with the ABC kit (Vector) and diaminobenzidine (Sigma). Dehydration of the mounted slides was achieved using ethanol and xylene dips. Images were acquired on a Leica light microscope at 5× magnification. […]

[3] = test system: twenty-four-month-old C57 mice; assay: Rotarod test for motor coordination in aged mice; type: in vivo; conditions: 4 weeks continuous infusion by osmotic pump
Procedure: The mice were trained in the rotarod for 3 trials up to 100 seconds each, the rotarod being a test of motor coordination. Success or failure was recorded on the last trial, with success defined by a latency to fall of >90 seconds. A binomial test was conducted to compare success rates between control and compound-treated mice.
Twenty-four-month-old C57 mice were treated for 4 weeks with continuous infusion of Compound 1 or vehicle by Alzet osmotic pump, which were implanted to continuously deliver the two treatments.
Treatment Groups: • Treatment Group 1, Old Controls: Aged C57BL/6 mice (n=15), aged 23 months, received infusion of vehicle by Alzet mini-pump, model 2002 (0.5 uL/hr), for four weeks with one replacement. • Treatment Group 2, Compound 1 (dose 2) in Old: Aged C57BL/6 mice (n=15), aged 23 months, received infusion of ˜50 mg/ml Compound 1 by Alzet mini-pump, model 2002 (0.5 uL/hr), for four weeks with one replacement.

[4] = test system: CD68+ activated microglia; assay: CD68+ activated microglia after one dose of LPS; type: in vivo, C57 mice; conditions: 3-month-old mice; one dose LPS 10 mg/kg IP; 30 mg/kg BID oral gavage 18 days
From the text: as §1

[5] = test system: GFAP-positive astroglia; assay: IHC of GFAP-positive astroglia in hippocampus of mice given daily LPS; type: in vivo, C57Bl/6 mice; conditions: 3-month-old mice, daily LPS IP 7 weeks, 30 mg/kg PO BID 4 weeks
Procedure: For fluorescent microscopy, the following antibodies were used in the given concentrations: GFAP, 1:500, DAKO; Iba1, 1:1000, Wako; and BrdU, 1:500, AbCam. Antigen retrieval protocol was required for BrdU (2N HCl, 37 C, 30 min) prior to blocking. The appropriate fluorescent secondary antibodies were applied the next day at a concentration of 1:300 for one hour at room temperature. Prolong Gold Mounting Media was used to coverslip the slides. Images were acquired on a light microscope at 5× magnification.
Three-month-old C57 mice were given daily doses of lipopolysaccharide (LPS) 0.5 mg/kg IP to induce inflammation and treated with Compound 1 for up to 4 weeks.
Treatment Groups: • Treatment Group 1, Vehicle treatment: 3-month-old C57 mice (n=10) received daily IP injection of LPS for 7 weeks and twice daily (BID) oral gavage (PO) treatment of vehicle solution for up to 4 weeks. • Treatment Group 2, Vehicle treatment and Oxazolone treatment: 3-month-old C57 mice (n=10) received daily IP injection of LPS for 7 weeks and twice daily (BID) oral gavage (PO) treatment of vehicle solution for up to 4 weeks. • Treatment Group 3, Compound 1 treatment and Oxazolone treatment: 3-month-old C57 mice (n=9) received daily IP injection of LPS for 7 weeks and twice daily (BID) oral gavage (PO) treatment of Compound 1, 30 mg/kg, for up to 4 weeks.

concentration at 8 hours [1]: > 100 nM
Structure (SMILES): Cc1cc(C(=O)N(C)C)cc(NC(=O)[C@H]2CCC(=O)N2C2CCN(Cc3ccc(Cl)c(C)c3)CC2)n1 [Compound 1]
doublecortin-positive cells in the hippocampus [2]: increased the numbers of doublecortin-positive cells
proportion of mice able to stay on the rod for longer than 90 seconds ([3]; control 20%): 47%
Rotarod success versus vehicle (binomial test) ([3]; success = latency to fall >90 seconds): succeeded more than vehicle-treated mice
CD68+ immunoreactivity (activated microglia) in brain [4]: significantly decreased CD68+ immunoreactivity
GFAP+ immunoreactivity (total astrocytes) in hippocampus [5]: dramatically decreased GFAP+ immunoreactivity; also recorded: trend towards decrease
